Assay results as given in PMC5991599, “Anti‐tumor efficacy of a novel CLK inhibitor via targeting RNA splicing and MYC‐dependent vulnerability” (EMBO Molecular Medicine, 2018).

Assays:
786-O = test: Cell proliferation assay (CellTiter-Glo); assay type: cell-based; conditions: Homo sapiens, 786-0; 72 h treatment; kidney cancer; read-out: IC50 (growth inhibition)
Protocol: (§1) Cell proliferation assay, Caspase-3/7 assay
(§2) Cell proliferation was measured using CellTiter-Glo luminescent cell viability
(§3) assay (Promega, Fitchburg, WI, U.S.A.). Caspase-3/7 activity was measured using
(§4) Caspase-Glo 3/7 Assay Systems (Promega). Luminescence of each well was measured
(§5) using ARVO Light (PerkinElmer Inc., Waltham, MA, U.S.A.). The IC50 value and 95%
(§6) confidential intervals were estimated using GraphPad Prism 5 (GraphPad Software,
(§7) Inc., La Jolla, CA, U.S.A.). […]

Wi38 = test: Cell proliferation assay (CellTiter-Glo); assay type: cell-based; conditions: Homo sapiens, WI-38; 72 h treatment; normal lung fibroblast; read-out: IC50 (growth inhibition)
Protocol: as §1, §2, §3, §4, §5, §6, §7

BJ = test: Cell proliferation assay (CellTiter-Glo); assay type: cell-based; conditions: Homo sapiens, 72 h treatment, normal skin fibroblast, read-out: IC50 (growth inhibition)
Protocol: as §1, §2, §3, §4, §5, §6, §7

MDA-MB-468 = test: Cell proliferation assay (CellTiter-Glo); assay type: cell-based; conditions: Homo sapiens, 72 h treatment, breast cancer, read-out: IC50 (growth inhibition)
Protocol: as §1, §2, §3, §4, §5, §6, §7

NCI-H1048 = test: Cell proliferation assay (CellTiter-Glo); assay type: cell-based; conditions: Homo sapiens, 72 h treatment, lung cancer, read-out: IC50 (growth inhibition)
Protocol: as §1, §2, §3, §4, §5, §6, §7

COLO320HSR = test: Cell proliferation assay (CellTiter-Glo); assay type: cell-based; conditions: Homo sapiens, COLO-320-HSR; 72 h treatment; colorectal cancer; read-out: IC50 (growth inhibition)
Protocol: as §1, §2, §3, §4, §5, §6, §7

[1] = tested on: MYC-driven breast tumor allograft; test: Efficacy study in MMTV-MYC allograft model; assay type: in vivo, Balb/c nude mice; conditions: 50 mg/kg, twice daily on 2 days per week
Protocol: The transgenic MMTV‐MYC model was generated using the MMTV promoter as previously described (Muller et al, 1988) and was obtained from the Mouse Models of Human Cancer Consortium. The MYC‐driven breast tumor allograft model was established from a primary tumor of this model (females). Tumor cells were isolated using a cell strainer in the presence of RPMI. Viable cell count was determined, and 0.1 × 10^6 cells per mouse were subcutaneously injected in Balb/c nude animals (12‐week‐old females, Taconic Biosciences, Hudson, NY, USA) for subsequent propagation in the presence of Matrigel (BD, Franklin Lakes, NJ, USA) After two rounds of in vivo propagation, the tumor material was cryopreserved in liquid nitrogen. A small piece of the tumor was subcutaneously inoculated into Balb/c nude mice (7‐ to 8‐week‐old females), and the tumors were used for efficacy assessment.
(§8) Tumor volume=long diameter×short diameter×short diameter×(1/2)
(§9) Mice having a tumor of size approximately 200 mm^3 were used in efficacy or in vivo pharmacodynamics studies. T‐025 was dissolved in 0.5% methylcellulose solution. For the efficacy study, after randomized grouping, mice were treated with T‐025 twice daily once or twice weekly for 2 or 3 weeks. The mouse tumor volume and body weight were measured every 2–3 days.

other kinases = test: KINOMEScan-based kinase selectivity assay, kinases other than CLK/DYRK1; assay type: binding
Protocol: The KINOMEScan‐based kinase selectivity assay was performed at the DiscoverX Corporation (Fremont, CA, USA). The panel of growth inhibition assay and subsequent bioinformatics analysis (Fig EV1) were performed at Eurofins Inc. (St. Charles, MO, USA), using OncoPanel 240 or 60. Details of the procedures of cell proliferation assay, caspase‐3/7 activity assay, immunoblotting, and immunohistochemistry are described in Appendix Supplementary Methods.

DYRK1A = biological target: T1, DYRK1A (Homo sapiens, UniProt Q13627); test: KINOMEScan-based kinase selectivity assay; assay type: binding
T1 construct: purchased DiscoverX Corporation (Fremont, CA, USA)
Protocol: (§10) The KINOMEScan‐based kinase selectivity assay was performed at the DiscoverX Corporation (Fremont, CA, USA). The panel of growth inhibition assay and subsequent bioinformatics analysis (Fig EV1) were performed at Eurofins Inc. (St. […] Details of the procedures of cell proliferation assay, caspase‐3/7 activity assay, immunoblotting, and immunohistochemistry are described in Appendix Supplementary Methods.

CLK4 = biological target: T2, CLK4 (Homo sapiens, UniProt Q9HAZ1); test: KINOMEScan-based kinase selectivity assay; assay type: binding
T2 construct: purchased DiscoverX Corporation (Fremont, CA, USA)
T2 sequence (Q9HAZ1 whole entry): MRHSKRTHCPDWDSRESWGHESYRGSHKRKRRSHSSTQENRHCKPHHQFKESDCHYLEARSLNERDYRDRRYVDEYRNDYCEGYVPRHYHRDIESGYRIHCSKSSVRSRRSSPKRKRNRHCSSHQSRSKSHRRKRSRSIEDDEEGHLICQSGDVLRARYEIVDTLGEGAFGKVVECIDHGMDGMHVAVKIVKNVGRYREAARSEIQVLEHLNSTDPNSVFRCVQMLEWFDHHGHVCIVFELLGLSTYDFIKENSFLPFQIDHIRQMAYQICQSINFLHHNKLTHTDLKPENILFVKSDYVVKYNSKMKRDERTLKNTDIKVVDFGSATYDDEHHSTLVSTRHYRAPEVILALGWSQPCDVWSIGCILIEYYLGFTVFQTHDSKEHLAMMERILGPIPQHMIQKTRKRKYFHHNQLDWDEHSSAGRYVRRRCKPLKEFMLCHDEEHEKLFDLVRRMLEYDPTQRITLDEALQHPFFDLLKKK
Protocol: as §10

HIPK1 = biological target: T3, HIPK1 (Homo sapiens, UniProt Q86Z02); test: KINOMEScan-based kinase selectivity assay; assay type: binding
T3 construct: purchased DiscoverX Corporation (Fremont, CA, USA)
T3 sequence (Q86Z02 whole entry): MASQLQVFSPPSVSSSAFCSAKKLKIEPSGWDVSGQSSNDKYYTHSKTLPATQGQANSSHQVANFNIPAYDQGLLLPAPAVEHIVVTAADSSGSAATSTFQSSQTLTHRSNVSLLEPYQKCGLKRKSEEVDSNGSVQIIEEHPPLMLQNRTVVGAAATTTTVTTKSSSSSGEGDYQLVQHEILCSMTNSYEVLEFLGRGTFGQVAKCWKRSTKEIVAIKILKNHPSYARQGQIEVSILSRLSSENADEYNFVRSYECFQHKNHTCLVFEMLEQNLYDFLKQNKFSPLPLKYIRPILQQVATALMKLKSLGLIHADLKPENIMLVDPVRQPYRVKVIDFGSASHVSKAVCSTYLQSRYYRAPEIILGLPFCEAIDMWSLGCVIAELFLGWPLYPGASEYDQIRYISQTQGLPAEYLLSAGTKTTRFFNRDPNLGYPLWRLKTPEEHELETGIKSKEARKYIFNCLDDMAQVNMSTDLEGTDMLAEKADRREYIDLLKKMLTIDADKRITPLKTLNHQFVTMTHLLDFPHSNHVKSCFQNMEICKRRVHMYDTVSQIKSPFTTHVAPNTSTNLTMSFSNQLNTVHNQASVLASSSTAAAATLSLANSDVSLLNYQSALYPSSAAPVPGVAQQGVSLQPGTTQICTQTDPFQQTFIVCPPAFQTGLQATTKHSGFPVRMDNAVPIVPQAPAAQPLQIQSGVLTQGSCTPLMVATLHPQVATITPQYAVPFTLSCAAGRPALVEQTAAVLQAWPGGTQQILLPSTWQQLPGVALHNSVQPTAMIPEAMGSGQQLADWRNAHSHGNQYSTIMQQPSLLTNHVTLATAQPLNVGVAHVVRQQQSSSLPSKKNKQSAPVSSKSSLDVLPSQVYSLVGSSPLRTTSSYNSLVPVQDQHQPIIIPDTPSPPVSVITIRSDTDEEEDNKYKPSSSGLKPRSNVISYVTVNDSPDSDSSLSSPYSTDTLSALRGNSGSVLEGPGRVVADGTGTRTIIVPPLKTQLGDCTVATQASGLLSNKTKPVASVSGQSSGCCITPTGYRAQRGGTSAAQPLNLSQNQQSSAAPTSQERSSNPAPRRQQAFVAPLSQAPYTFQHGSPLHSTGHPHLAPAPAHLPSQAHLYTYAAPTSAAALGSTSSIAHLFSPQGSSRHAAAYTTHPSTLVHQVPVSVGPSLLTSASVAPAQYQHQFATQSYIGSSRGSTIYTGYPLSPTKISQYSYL
Protocol: as §10

FLT3 D835H = biological target: T4, FLT3 D835H (Homo sapiens, UniProt P36888, D835H); test: KINOMEScan-based kinase selectivity assay; assay type: binding
T4 construct: purchased DiscoverX Corporation (Fremont, CA, USA)
Protocol: as §10

DYRK2 = biological target: T5, DYRK2 (Homo sapiens, UniProt Q92630); test: KINOMEScan-based kinase selectivity assay; assay type: binding
T5 construct: purchased DiscoverX Corporation (Fremont, CA, USA)
T5 sequence (Q92630 whole entry): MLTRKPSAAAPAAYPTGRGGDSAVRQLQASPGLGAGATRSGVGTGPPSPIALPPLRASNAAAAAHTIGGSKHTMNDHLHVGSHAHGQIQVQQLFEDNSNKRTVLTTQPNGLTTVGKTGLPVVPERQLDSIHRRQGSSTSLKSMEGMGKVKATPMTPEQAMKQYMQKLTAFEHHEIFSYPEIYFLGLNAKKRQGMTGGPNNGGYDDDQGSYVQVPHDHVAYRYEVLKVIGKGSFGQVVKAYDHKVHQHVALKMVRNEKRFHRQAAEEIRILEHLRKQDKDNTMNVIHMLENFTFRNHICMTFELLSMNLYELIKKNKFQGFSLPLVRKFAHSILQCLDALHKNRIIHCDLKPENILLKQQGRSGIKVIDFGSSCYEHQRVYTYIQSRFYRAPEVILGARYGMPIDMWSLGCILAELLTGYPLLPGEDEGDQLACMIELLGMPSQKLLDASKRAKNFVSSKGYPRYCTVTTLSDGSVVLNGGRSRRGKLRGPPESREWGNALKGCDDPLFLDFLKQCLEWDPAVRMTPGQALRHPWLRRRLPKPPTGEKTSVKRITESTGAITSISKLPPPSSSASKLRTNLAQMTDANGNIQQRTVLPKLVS
Protocol: as §10

CLK1 = CLK1 (Homo sapiens, UniProt P49759); test: KINOMEScan-based kinase selectivity assay; assay type: binding
Chain of CLK1 (P49759 whole entry): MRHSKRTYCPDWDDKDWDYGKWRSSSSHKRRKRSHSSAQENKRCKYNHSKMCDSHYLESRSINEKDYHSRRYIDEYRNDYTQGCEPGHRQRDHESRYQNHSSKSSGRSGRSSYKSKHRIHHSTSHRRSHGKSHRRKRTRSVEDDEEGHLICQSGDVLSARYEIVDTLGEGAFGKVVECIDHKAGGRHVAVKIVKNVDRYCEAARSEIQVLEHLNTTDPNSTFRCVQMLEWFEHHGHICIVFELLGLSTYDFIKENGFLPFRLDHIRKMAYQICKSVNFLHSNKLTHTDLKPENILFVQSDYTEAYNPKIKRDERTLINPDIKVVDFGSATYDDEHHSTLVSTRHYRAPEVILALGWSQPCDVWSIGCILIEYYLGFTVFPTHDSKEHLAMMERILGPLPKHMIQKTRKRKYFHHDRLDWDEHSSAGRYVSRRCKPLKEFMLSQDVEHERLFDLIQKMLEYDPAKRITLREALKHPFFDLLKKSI
Protocol: as §10

CLK3 = CLK3 (Homo sapiens, UniProt P49761); test: KINOMEScan-based kinase selectivity assay; assay type: binding
Chain of CLK3 (P49761 whole entry): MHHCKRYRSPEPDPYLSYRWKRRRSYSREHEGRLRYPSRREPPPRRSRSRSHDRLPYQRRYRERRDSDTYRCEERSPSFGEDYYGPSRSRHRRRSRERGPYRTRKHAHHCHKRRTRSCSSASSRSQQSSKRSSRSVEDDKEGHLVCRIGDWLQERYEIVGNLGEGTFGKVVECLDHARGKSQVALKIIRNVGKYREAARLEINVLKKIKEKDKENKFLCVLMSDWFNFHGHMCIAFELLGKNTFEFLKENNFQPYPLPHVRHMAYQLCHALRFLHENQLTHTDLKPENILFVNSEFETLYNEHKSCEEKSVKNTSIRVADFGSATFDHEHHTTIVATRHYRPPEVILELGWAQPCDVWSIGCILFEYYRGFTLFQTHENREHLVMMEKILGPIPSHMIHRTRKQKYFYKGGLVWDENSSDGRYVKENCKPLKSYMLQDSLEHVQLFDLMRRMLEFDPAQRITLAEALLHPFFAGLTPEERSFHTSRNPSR
Protocol: as §10

CLK2 = CLK2 (Homo sapiens, UniProt P49760); test: KINOMEScan-based kinase selectivity assay; assay type: binding
Chain of CLK2 (P49760 whole entry): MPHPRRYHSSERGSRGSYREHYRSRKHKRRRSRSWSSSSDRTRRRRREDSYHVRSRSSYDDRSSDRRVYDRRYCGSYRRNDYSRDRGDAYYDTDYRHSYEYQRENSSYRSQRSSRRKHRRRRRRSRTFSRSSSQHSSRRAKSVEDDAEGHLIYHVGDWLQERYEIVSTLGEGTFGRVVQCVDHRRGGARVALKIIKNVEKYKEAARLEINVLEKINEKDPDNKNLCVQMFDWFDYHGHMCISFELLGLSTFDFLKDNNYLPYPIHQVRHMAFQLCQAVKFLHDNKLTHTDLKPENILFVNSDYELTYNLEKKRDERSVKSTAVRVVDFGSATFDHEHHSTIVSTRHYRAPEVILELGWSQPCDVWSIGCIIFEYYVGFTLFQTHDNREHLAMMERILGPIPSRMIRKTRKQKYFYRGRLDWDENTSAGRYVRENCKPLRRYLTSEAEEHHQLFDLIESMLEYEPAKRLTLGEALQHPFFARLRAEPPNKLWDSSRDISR
Protocol: as §10

ERK8 = biological target: T6, ERK8 (Homo sapiens, UniProt Q8TD08); test: KINOMEScan-based kinase selectivity assay; assay type: binding
T6 construct: purchased DiscoverX Corporation (Fremont, CA, USA)
T6 sequence (Q8TD08 whole entry): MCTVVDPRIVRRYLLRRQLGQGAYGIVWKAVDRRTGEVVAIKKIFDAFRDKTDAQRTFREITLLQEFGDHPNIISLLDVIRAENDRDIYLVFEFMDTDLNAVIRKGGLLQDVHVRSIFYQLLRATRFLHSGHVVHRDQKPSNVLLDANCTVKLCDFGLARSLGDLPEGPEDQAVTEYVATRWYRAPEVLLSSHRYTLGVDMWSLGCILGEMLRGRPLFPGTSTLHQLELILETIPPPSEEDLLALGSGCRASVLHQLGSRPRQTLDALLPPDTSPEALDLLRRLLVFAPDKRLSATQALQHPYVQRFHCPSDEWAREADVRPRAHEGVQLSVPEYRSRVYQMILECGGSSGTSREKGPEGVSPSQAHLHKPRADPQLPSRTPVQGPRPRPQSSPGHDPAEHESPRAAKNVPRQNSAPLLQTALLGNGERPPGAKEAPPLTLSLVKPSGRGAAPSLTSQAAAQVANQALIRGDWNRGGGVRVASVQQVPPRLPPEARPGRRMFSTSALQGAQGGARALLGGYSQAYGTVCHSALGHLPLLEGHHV
Protocol: as §10

IRAK4 = biological target: T7, IRAK4 (Homo sapiens, UniProt Q9NWZ3); test: KINOMEScan-based kinase selectivity assay; assay type: binding
T7 construct: purchased DiscoverX Corporation (Fremont, CA, USA)
T7 sequence (Q9NWZ3 whole entry): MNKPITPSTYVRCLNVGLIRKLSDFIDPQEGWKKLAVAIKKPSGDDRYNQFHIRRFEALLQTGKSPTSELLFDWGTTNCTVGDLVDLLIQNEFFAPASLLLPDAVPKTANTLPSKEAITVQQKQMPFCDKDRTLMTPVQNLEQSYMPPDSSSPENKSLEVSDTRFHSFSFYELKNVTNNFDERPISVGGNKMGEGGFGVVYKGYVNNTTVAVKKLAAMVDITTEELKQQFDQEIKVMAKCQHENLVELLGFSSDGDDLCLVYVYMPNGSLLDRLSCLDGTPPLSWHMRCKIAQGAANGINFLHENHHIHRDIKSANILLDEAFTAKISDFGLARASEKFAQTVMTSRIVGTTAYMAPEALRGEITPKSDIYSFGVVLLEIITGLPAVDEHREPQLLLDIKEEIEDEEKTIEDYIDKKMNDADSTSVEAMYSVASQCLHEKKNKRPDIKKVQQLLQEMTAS
Protocol: as §10

YSK4 = biological target: T8, YSK4 (Homo sapiens, UniProt Q56UN5); test: KINOMEScan-based kinase selectivity assay; assay type: binding
T8 construct: purchased DiscoverX Corporation (Fremont, CA, USA)
Protocol: as §10

MDA-MB-468 xenograft = test: Efficacy study in MDA-MB-468 xenograft model; assay type: in vivo, Balb/c nude mice; conditions: 50 mg/kg oral, twice daily on 2 days per week
Protocol: When xenografted tumors grew to a sufficient volume, the tumor diameter was measured and its volume was calculated as follows:
as §8, §9

**Q.** What does the source list for `CNc1nc(NCc2ncccn2)c2c(-c3ccc4ncccc4c3)c[nH]c2n1` [T-025, N ^2‐methyl‐N ^4‐[pyrimidin‐2‐ylmethyl]‐5‐[quinolin‐6‐yl]‐7H‐pyrrolo[2,3‐d]pyrimidine‐2,4‐diamine]?
**A.** IC50 (786-O): 340 nM; IC50 (Wi38): 257 nM; IC50 (BJ): 355 nM; IC50 (MDA-MB-468): 79.8 nM; IC50 (NCI-H1048): 84.4 nM; IC50 (COLO320HSR): 91.8 nM; anti-tumor efficacy, tumor growth [1]: strongly suppressed growth of the allograft tumors; body weight loss [1]: without inducing body weight losses; selectivity for CLK/DYRK1 over other kinases (other kinases): > 300 fold; Kd (other kinases; no other kinase had Kd < 30, read-out: Kd of other kinases outside of CLK and DYRK1 family): ≥ 30 nM; Kd (DYRK1A): 0.074 nM; inhibition at 0.3 µM (DYRK1A; 300 nmol/L, n = 2): 100%; Kd (CLK4): 0.61 nM; inhibition at 0.3 µM (CLK4; 300 nmol/L, n = 2): 100%; Kd (HIPK1): 55 nM; inhibition at 0.3 µM (HIPK1; 300 nmol/L, n = 2): 94.6%; Kd (FLT3 D835H): 94 nM; inhibition at 0.3 µM (FLT3 D835H; 300 nmol/L, n = 2): 98.8%; Kd (DYRK2): 32 nM; inhibition at 0.3 µM (DYRK2; 300 nmol/L, n = 2): 98.6%; Kd (CLK1): 4.8 nM; inhibition at 0.3 µM (CLK1; 300 nmol/L, n = 2): 99.4%; Kd (CLK3): 6.5 nM; inhibition at 0.3 µM (CLK3; 300 nmol/L, n = 2): 90.2%; Kd (CLK2): 0.096 nM; inhibition at 0.3 µM (CLK2; 300 nmol/L, n = 2): 93.1%; Kd (ERK8): 140 nM; inhibition at 0.3 µM (ERK8; 300 nmol/L, n = 2): 94.8%; Kd (IRAK4): 54 nM; inhibition at 0.3 µM (IRAK4; 300 nmol/L, n = 2): 94.8%; Kd (YSK4): 33 nM; inhibition at 0.3 µM (YSK4; 300 nmol/L, n = 2): 97.5%; nadir body weight loss (MDA-MB-468 xenograft; 3 weeks, near the maximum tolerated dose): < 10%; anti-tumor effect, tumor volume (MDA-MB-468 xenograft; end of 3-week treatment cycle): tumor volumes had shrunk relative to the initial volumes
